Assay results published in patent EP0038251A1, “Derivatives of osides, their preparation and their biological applications” (ANVAR Agence Nationale de Valorisation de la Recherche, priority 1980, dated 1981).

System: hémolysines anti-B
Experiment: Neutralisation of anti-B haemolysins: inhibition of one agglutinating dose of an anti-B test serum (European Pharmacopoeia techniques)
Format: biochemical
Conditions: dilution 1/5 of a 10 mg/ml solution
Method: On utilise une solution à 10 mg/ml du produit de formule XXVI.

C[C@@H]1O[C@@H](O[C@H]2[C@H](OCCCOCCCN)O[C@H](CO)[C@H](O)[C@@H]2O[C@H]2O[C@H](CO)[C@H](O)[C@H](O)[C@H]2O)[C@@H](O)[C@H](O)[C@@H]1O [trisaccharide XXVI]
inhibition d'une dose agglutinante d'un sérum-test anti-B: inhibition totale
